According to patent US20200061047A1, “NEW USE OF RIFAMYCIN-QUINOLIZIDONE DUAL-ACTION MOLECULE” (TenNor Therapeutics Limited, priority 2017, published 2020):
Converted amounts (≈) assume the structure as drawn. Like-named read-outs stand apart in the source and are kept apart here.

Key:
Format in all cases: cell-based
[1] = test system: Clostridium perfringens ATCC 13124; test: microbe, parasite or virus in culture; details: ATCC13124
[2] = test system: Bacteroides bifidum ATCC 1569; test: MIC, agar dilution drug sensitivity test; details: ATCC1569, Table 1
[3] = test system: Serratia marcescens ATCC 43862; test: MIC, agar dilution drug sensitivity test
[4] = test system: Streptococcus salivarius ATCC 25975; test: MIC, agar dilution drug sensitivity test
[5] = test system: Enterobacter aerogenes ATCC 13048; test: MIC, agar dilution drug sensitivity test
[6] = test system: Haemophilus influenzae ATCC 49247; test: MIC, microscale broth dilution drug sensitivity test
Experimental: (§1) In this embodiment, compound I-rifamycin-quinolizidone dual-action molecule is used in a drug sensitivity test on pathogenic bacteria associated with hepatic encephalopathy, the pathogenic bacteria including the above ammonia-producing bacteria. Except that Haemophilus is tested using the microscale broth dilution method, all the other bacteria are tested using the agar dilution method consistent with that in the Guideline of the Clinical and Laboratory Standards Institute (CLSI; 1-3). All the other drug susceptibility tests are performed under anaerobic conditions except that some selective isolates are tested under both aerobic and anaerobic conditions. Control compounds include metronidazole, rifampicin, clindamycin (under anaerobic conditions) and ciprofloxacin (under aerobic and anaerobic conditions). The tested clinical isolates may be reference strains obtained from American Type Culture Collection, ATCC, Manassas, Va. After being received, the strains are respectively inoculated on appropriate agar plates and placed under optimized conditions for growth. The growing strains are cloned in the broth containing cryoprotectant to prepare bacterial suspensions, and the bacterial suspensions are subpackaged and then stored in freezing at −80° C. Before test, the frozen bacteria are inoculated into appropriate agar dishes and cultured for growth. Anaerobic bacteria grow for 48 hours at 35° C. in a Bactron II oxygen-free cabinet (Shel Lab, Cornelius, Oreg.) before test. Haemophilus Test Medium (HTM, Teknova, Hollister, Calif.; Art. No.: 895120) is used to perform drug sensitivity test on Hemophilus using the microscale broth dilution method under aerobic and anaerobic conditions. Preparation and storage of all the above broths are performed in accordance with CLSI (1-3).

[7] = test system: Haemophilus parainfluenzae ATCC 49247; test: as above; details: ATCC49247
Experimental: as §1

[8] = test system: Fusobacterium necrophorum ATCC 25286; test: MIC, agar dilution drug sensitivity test; details: ATCC25286, Table 1
[9] = test system: Streptococcus pneumoniae ATCC 49619; test: MIC, agar dilution drug sensitivity test
[10] = test system: Streptococcus parasanguinis MMX 5671; test: MIC, agar dilution drug sensitivity test
[11] = test system: Clostridium difficile ATCC 700057; test: MIC, agar dilution drug sensitivity test; details: Clostridioides difficile, ATCC700057
[12] = test system: Proteus vulgaris ATCC 1331; test: MIC, agar dilution drug sensitivity test
[13] = test system: Eggerthella lenta ATCC 43055; test: MIC, agar dilution drug sensitivity test; details: ATCC43055, Table 1
[14] = test system: Bifidobacterium infantis subsp. Infantis ATCC 15702; test: MIC, agar dilution drug sensitivity test; details: ATCC15702, Table 1
[15] = test system: Peptostreptococcus prevotii ATCC 9321; test: MIC, agar dilution drug sensitivity test; details: Anaerococcus prevotii, ATCC9321, Table 1
[16] = test system: Bordetella avium ATCC 6945; test: MIC, agar dilution drug sensitivity test
[17] = test system: Bacteroides vulgatus JMI 927011; test: MIC, agar dilution drug sensitivity test; details: Phocaeicola vulgatus, JMI927011
[18] = test system: Actinomyces naeslundii JMI 534283; test: MIC, agar dilution drug sensitivity test; details: JMI534283, Aerobic
[19] = test system: Corynebacterium urealyticum JMI 2015_30; test: MIC, agar dilution drug sensitivity test; details: Aerobic
[20] = test system: Staphylococcus saprophyticus JMI 2016_703; test: MIC, agar dilution drug sensitivity test; details: Aerobic
[21] = test system: Alcaligenes faecalis JMI 940880; test: MIC, agar dilution drug sensitivity test; details: JMI940880, Aerobic
[22] = test system: Proteus vulgaris MMX 6454; test: MIC, agar dilution drug sensitivity test; details: MMX6454, Table 1
[23] = test system: Proteus mirabilis JMI 933599; test: MIC, agar dilution drug sensitivity test; details: JMI933599, Table 1
[24] = test system: Lactobacillus salivarius JMI 941623; test: MIC, agar dilution drug sensitivity test; details: Ligilactobacillus salivarius, JMI941623, Table 1
[25] = test system: Escherichia coli ATCC 25922; test: MIC, agar dilution drug sensitivity test; details: ATCC25922, Table 1
[26] = test system: Klebsiella oxytoca JMI 933995; test: MIC, agar dilution drug sensitivity test; details: JMI933995, Table 1
[27] = test system: Morganella morganii MMX 6123; test: MIC, agar dilution drug sensitivity test; details: MMX6123, Table 1
[28] = test system: Helicobacter pylori ATCC 700824; test: MIC, agar dilution drug sensitivity test; details: ATCC700824, Table 1
[29] = test system: Yersinia enterocolitica ATCC 23715; test: MIC, agar dilution drug sensitivity test; details: ATCC23715, Table 1
[30] = test system: Salmonella spp ATCC 35987; test: MIC, agar dilution drug sensitivity test; details: ATCC35987, Table 1
Experimental: In this embodiment, compound I-rifamycin-quinolizidone dual-action molecule is used in a drug sensitivity test on pathogenic bacteria associated with hepatic encephalopathy, the pathogenic bacteria including the above ammonia-producing bacteria. Except that Haemophilus is tested using the microscale broth dilution method, all the other bacteria are tested using the agar dilution method consistent with that in the Guideline of the Clinical and Laboratory Standards Institute (CLSI; 1-3). All the other drug susceptibility tests are performed under anaerobic conditions except that some selective isolates are tested under both aerobic and anaerobic conditions. Control compounds include metronidazole, rifampicin, clindamycin (under anaerobic conditions) and ciprofloxacin (under aerobic and anaerobic conditions).
The tested clinical isolates may be reference strains obtained from American Type Culture Collection, ATCC, Manassas, Va. After being received, the strains are respectively inoculated on appropriate agar plates and placed under optimized conditions for growth. The growing strains are cloned in the broth containing cryoprotectant to prepare bacterial suspensions, and the bacterial suspensions are subpackaged and then stored in freezing at −80° C. Before test, the frozen bacteria are inoculated into appropriate agar dishes and cultured for growth. Anaerobic bacteria grow for 48 hours at 35° C. in a Bactron II oxygen-free cabinet (Shel Lab, Cornelius, Oreg.) before test. […]
The Minimum Inhibitory Concentration (MIC) is determined using the agar dilution method.
The MIC values of all microorganisms except Haemophilus are determined using the agar dilution method in the CLSI (1-2). […] After culturing, the MIC is determined in accordance with the CLSI guideline (1-2).

[31] = ATCC49247, Haemophilus influenzae ATCC 49247, Aerobic
[32] = ATCC49247, Haemophilus influenzae ATCC 49247, Anaerobic

Compound: Cc1ncc([N+](=O)[O-])n1CCO [Metronidazole, metronidazole]
- MIC [1]: 2 µg/mL (≈ 11.7 µM)
- MIC [2]: 8 µg/mL (≈ 46.7 µM)
- MIC ([3]; Serratia marcescens ATCC 43862, Anaerobic): >256 µg/mL
- MIC ([3]; Serratia marcescens, ATCC43862): > 256 µg/mL
- MIC ([4]; Streptococcus salivarius ATCC 25975, Anaerobic): >256 µg/mL
- MIC ([4]; Streptococcus salivarius, ATCC25975): > 256 µg/mL
- MIC ([5]; Enterobacter aerogenes ATCC 13048, Anaerobic): >256 µg/mL
- MIC ([5]; Klebsiella aerogenes, ATCC13048): > 256 µg/mL
- MIC [6, 31]: 64 µg/mL (≈ 374 µM)
- MIC [6, 32]: 64 µg/mL (≈ 374 µM)
- MIC ([7]; Haemophilus parainfluenzae): 128 µg/mL (≈ 748 µM)
- MIC [8]: 0.12 µg/mL (≈ 0.701 µM)
- MIC ([9]; ATCC49619, Streptococcus pneumoniae ATCC 49619, Aerobic): > 256 µg/mL
- MIC ([9]; ATCC49619, Streptococcus pneumoniae ATCC 49619, Anaerobic): 128 µg/mL (≈ 748 µM)
- MIC ([10]; Streptococcus parasanguinis MMX 5671, Anaerobic): >256 µg/mL
- MIC ([10]; Streptococcus parasanguinis, MMX5671): > 256 µg/mL
- MIC [11]: 0.5 µg/mL (≈ 2.92 µM)
- MIC ([12]; Proteus vulgaris ATCC 1331, Anaerobic): >256 µg/mL
- MIC ([12]; Proteus vulgaris, ATCC1331): > 256 µg/mL
- MIC [13]: 1 µg/mL (≈ 5.84 µM)
- MIC [14]: 16 µg/mL (≈ 93.5 µM)
- MIC [15]: 256 µg/mL (≈ 1500 µM)
- MIC ([16]; Bordetella avium ATCC 6945, Anaerobic): >256 µg/mL
- MIC ([16]; Bordetella avium, ATCC6945): > 256 µg/mL

Compound: CO[C@H]1/C=C/O[C@@]2(C)Oc3c(C)c(O)c4c(O)c(c(/C=N/N5CCN(C)CC5)c(O)c4c3C2=O)NC(=O)/C(C)=C\C=C\[C@H](C)[C@H](O)[C@@H](C)[C@@H](O)[C@@H](C)[C@H](OC(C)=O)[C@@H]1C [Rifampicin, rifampicin]
- MIC ([3]; Serratia marcescens, ATCC43862, Serratia marcescens ATCC 43862, Aerobic, read-out: MIC): 64 µg/mL (≈ 77.8 µM)
- MIC ([3]; Serratia marcescens, ATCC43862, Serratia marcescens ATCC 43862, Anaerobic, read-out: MIC): 64 µg/mL (≈ 77.8 µM)
- MIC ([4]; Streptococcus salivarius, ATCC25975, Streptococcus salivarius ATCC 25975, Aerobic, read-out: MIC): 0.03 µg/mL (≈ 0.0365 µM)
- MIC ([4]; Streptococcus salivarius, ATCC25975, Streptococcus salivarius ATCC 25975, Anaerobic, read-out: MIC): 32 µg/mL (≈ 38.9 µM)
- MIC ([5]; Klebsiella aerogenes, ATCC13048, Enterobacter aerogenes ATCC 13048, Aerobic, read-out: MIC): 64 µg/mL (≈ 77.8 µM)
- MIC ([5]; Klebsiella aerogenes, ATCC13048, Enterobacter aerogenes ATCC 13048, Anaerobic, read-out: MIC): 64 µg/mL (≈ 77.8 µM)
- MIC [6, 31]: 0.25 to 1 µg/mL (≈ 0.304 to 1.22 µM)
- MIC [6, 32]: 0.25 µg/mL (≈ 0.304 µM)
- MIC ([7]; Haemophilus parainfluenzae ATCC 49247, Aerobic, read-out: MIC): 0.5 µg/mL (≈ 0.608 µM)
- MIC [17]: 0.06 µg/mL (≈ 0.0729 µM)
- MIC ([9]; ATCC49619, Streptococcus pneumoniae ATCC 49619, Aerobic, read-out: MIC): 0.03 µg/mL (≈ 0.0365 µM)
- MIC ([9]; ATCC49619, Streptococcus pneumoniae ATCC 49619, Anaerobic, read-out: MIC): 0.12 µg/mL (≈ 0.146 µM)
- MIC [18]: < 0.002 µg/mL
- MIC ([10]; Streptococcus parasanguinis, MMX5671, Streptococcus parasanguinis MMX 5671, Aerobic, read-out: MIC): 0.03 µg/mL (≈ 0.0365 µM)
- MIC ([10]; Streptococcus parasanguinis, MMX5671, Streptococcus parasanguinis MMX 5671, Anaerobic, read-out: MIC): 16 µg/mL (≈ 19.4 µM)
- MIC [19]: 0.004 µg/mL (≈ 0.00486 µM)
- MIC [20]: 1 µg/mL (≈ 1.22 µM)
- MIC ([12]; Proteus vulgaris, ATCC1331, Proteus vulgaris ATCC 1331, Aerobic, read-out: MIC): 16 µg/mL (≈ 19.4 µM)
- MIC ([12]; Proteus vulgaris, ATCC1331, Proteus vulgaris ATCC 1331, Anaerobic, read-out: MIC): 8 µg/mL (≈ 9.72 µM)
- MIC [21]: 16 µg/mL (≈ 19.4 µM)
- MIC ([16]; Bordetella avium, ATCC6945, Bordetella avium ATCC 6945, Aerobic, read-out: MIC): 16 µg/mL (≈ 19.4 µM)
- MIC ([16]; Bordetella avium, ATCC6945, Bordetella avium ATCC 6945, Anaerobic, read-out: MIC): 64 µg/mL (≈ 77.8 µM)

Compound: CO[C@H]1/C=C/O[C@@]2(C)Oc3c(C)c(O)c4c(O)c(c5c(nc6cc(C)ccn65)c4c3C2=O)NC(=O)/C(C)=C\C=C\[C@H](C)[C@H](O)[C@@H](C)[C@@H](O)[C@@H](C)[C@H](OC(C)=O)[C@@H]1C [Rifaximin, rifaximin]
- MIC [22]: 4 µg/mL (≈ 5.09 µM)
- MIC [1]: 0.12 µg/mL (≈ 0.153 µM)
- MIC [2]: 0.5 µg/mL (≈ 0.636 µM)
- MIC [8]: 16 µg/mL (≈ 20.4 µM)
- MIC [23]: 8 µg/mL (≈ 10.2 µM)
- MIC [24]: 1 µg/mL (≈ 1.27 µM)
- MIC [25]: 8 µg/mL (≈ 10.2 µM)
- MIC [26]: 32 µg/mL (≈ 40.7 µM)
- MIC [11]: 0.004 µg/mL (≈ 0.00509 µM)
- MIC [13]: 0.12 µg/mL (≈ 0.153 µM)
- MIC [14]: 0.25 µg/mL (≈ 0.318 µM)
- MIC [27]: 16 µg/mL (≈ 20.4 µM)
- MIC [15]: 0.03 µg/mL (≈ 0.0382 µM)
- MIC [28]: 2 µg/mL (≈ 2.54 µM)
- MIC [29]: 8 µg/mL (≈ 10.2 µM)
- MIC [30]: 16 µg/mL (≈ 20.4 µM)
